Experimental data: patent US10072017B2, “Compounds and methods for the treatment of cystic fibrosis” (Flatley Discovery Lab, LLC, priority 2015, dated 2018)

Target: T1, CFTR (Homo sapiens, UniProt P13569, DEL508-508)
T1 construct: Primary CF airway epithelial cells were obtained from the UNC Cystic Fibrosis Tissue Procurement and Cell Culture Core; host or cells: primary CF airway epithelial cells
Test: Equivalent current assay in Primary CF airway epithelial cells (NAUC)
Assay type: cell-based
Conditions: 24 h, normalized to VX809 (3 μM) positive control; for Nauc @ 3 μM: 3 μM test compound; for Nauc @ 10 μM: 10 μM test compound
In short: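 Primary CF airway epithelia differentiated ≥4 weeks at air-liquid interface, treated basolaterally 24 h at 37 °C with test compounds in combination with VX809, 0.1% DMSO vehicle. Equivalent current recorded after 5 μM benzamil, 10 μM forskolin plus 1 μM VX770, then CFTR-172/bumetanide 20 μM; vehicle-subtracted AUC normalized to 3 μM VX809 (NAUC), median of n≥4, sigmoid fit for EC50.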

T1 sequence (P13569 with tags, fused parts or gaps DEL508-508): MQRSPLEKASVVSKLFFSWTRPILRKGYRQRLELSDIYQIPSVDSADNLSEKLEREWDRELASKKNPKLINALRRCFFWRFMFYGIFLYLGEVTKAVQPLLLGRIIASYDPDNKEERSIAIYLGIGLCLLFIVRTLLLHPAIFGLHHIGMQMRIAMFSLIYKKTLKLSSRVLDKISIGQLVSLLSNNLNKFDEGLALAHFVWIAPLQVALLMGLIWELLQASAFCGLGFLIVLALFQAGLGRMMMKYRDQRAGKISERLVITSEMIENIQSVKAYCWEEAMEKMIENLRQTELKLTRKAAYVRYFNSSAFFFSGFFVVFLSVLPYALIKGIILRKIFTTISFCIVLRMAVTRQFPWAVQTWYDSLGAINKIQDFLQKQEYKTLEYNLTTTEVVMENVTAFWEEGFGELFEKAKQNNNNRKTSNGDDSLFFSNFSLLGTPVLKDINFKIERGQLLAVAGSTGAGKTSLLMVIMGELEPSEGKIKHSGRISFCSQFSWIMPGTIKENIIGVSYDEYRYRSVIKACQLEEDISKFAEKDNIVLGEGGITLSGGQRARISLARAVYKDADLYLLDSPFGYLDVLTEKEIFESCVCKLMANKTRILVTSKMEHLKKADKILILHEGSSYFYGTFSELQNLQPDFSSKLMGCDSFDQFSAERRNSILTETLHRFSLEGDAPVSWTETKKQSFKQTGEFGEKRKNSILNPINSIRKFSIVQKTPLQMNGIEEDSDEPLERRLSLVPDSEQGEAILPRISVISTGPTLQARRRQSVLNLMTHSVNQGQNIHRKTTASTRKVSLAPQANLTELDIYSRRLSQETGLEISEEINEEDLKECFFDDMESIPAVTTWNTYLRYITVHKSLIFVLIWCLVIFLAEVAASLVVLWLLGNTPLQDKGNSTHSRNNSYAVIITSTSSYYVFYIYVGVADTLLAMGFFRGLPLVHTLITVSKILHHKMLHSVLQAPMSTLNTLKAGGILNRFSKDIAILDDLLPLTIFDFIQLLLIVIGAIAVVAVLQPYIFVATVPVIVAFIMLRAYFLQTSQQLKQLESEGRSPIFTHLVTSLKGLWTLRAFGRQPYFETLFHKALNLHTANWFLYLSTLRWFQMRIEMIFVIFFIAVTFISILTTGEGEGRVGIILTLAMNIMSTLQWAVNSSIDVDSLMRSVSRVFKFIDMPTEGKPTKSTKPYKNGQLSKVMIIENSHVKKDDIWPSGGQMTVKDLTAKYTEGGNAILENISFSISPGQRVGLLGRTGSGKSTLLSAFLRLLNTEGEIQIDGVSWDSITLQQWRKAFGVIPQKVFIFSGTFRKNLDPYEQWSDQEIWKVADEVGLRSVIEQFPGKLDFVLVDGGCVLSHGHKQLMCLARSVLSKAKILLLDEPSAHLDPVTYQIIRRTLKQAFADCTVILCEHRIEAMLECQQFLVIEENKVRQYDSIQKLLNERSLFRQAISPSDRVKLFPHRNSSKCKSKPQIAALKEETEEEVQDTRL

SMILES | Nauc @ 3 μM | Nauc @ 10 μM
N[C@@H]1CC2C3C(=O)N(c4cc(Cl)cc(Cl)c4)C(=O)C3C3(C(=O)Nc4c(Cl)cc(Cl)cc43)N2C1 (stereo partly drawn) [Example 60] | + (NAUC “+” refers to an observed NAUC <140% of positive control) | ++ (NAUC “++” refers to an observed NAUC 170-140% of positive control)
CC1CC2C3C(=O)N(c4cc(Cl)cc(Cl)c4)C(=O)C3C3(C(=O)Nc4c(Cl)cc(Cl)cc43)N2C1 (stereo not drawn) [Example 63] | +++ (NAUC “+++” refers to an observed NAUC >170% of positive control) | +++ (NAUC “+++” refers to an observed NAUC >170% of positive control)
[2H]C12C(=O)N(c3cc(Cl)cc(Cl)c3)C(=O)C1([2H])C1(C(=O)Nc3c(Cl)cc(Cl)cc31)N1C[C@@H](O)CC12 (stereo partly drawn) [Example 64] | + (NAUC “+” refers to an observed NAUC <140% of positive control) | ++ (NAUC “++” refers to an observed NAUC 170-140% of positive control)
O=C1C2C3C[C@H](Cl)CN3C3(C(=O)Nc4c(Cl)cc(Cl)cc43)C2C(=O)N1c1cc(Cl)cc(Cl)n1 (stereo partly drawn) [Example 65] | ++ (NAUC “++” refers to an observed NAUC 170-140% of positive control) | +++ (NAUC “+++” refers to an observed NAUC >170% of positive control)
COC(=O)c1cccc(N2C(=O)C3C4CCCN4C4(C(=O)Nc5c(Cl)cc(Cl)cc54)C3C2=O)c1 (stereo not drawn) [Example 66] | ++ (NAUC “++” refers to an observed NAUC 170-140% of positive control) | ++ (NAUC “++” refers to an observed NAUC 170-140% of positive control)
N#C[C@H]1CC2C3C(=O)N(c4cc(Cl)cc(Cl)c4)C(=O)C3C3(C(=O)Nc4c(Cl)cc(Cl)cc43)N2C1 (stereo partly drawn) [Example 68] | + (NAUC “+” refers to an observed NAUC <140% of positive control) | +++ (NAUC “+++” refers to an observed NAUC >170% of positive control)
CC(=O)O[C@H]1CC2C3C(=O)N(c4cc(Cl)cc(Cl)c4)C(=O)C3C3(C(=O)N(C(C)=O)c4c(Cl)cc(Cl)cc43)N2C1 (stereo partly drawn) [Example 69] | +++ (NAUC “+++” refers to an observed NAUC >170% of positive control) | + (NAUC “+” refers to an observed NAUC <140% of positive control)
CC1CC2C3C(=O)N(c4cc(Cl)cc(Cl)c4)C(=O)C3C3(C(=O)Nc4c(Cl)cc(Cl)cc43)N2C1 (stereo not drawn) [Example 71] | + (NAUC “+” refers to an observed NAUC <140% of positive control) | +++ (NAUC “+++” refers to an observed NAUC >170% of positive control)
COc1cc(Cl)cc(N2C(=O)C3C4C[C@H](O)CN4C4(C(=O)Nc5c(Cl)cc(Cl)cc54)C3C2=O)c1 (stereo partly drawn) [Example 74] | +++ (NAUC “+++” refers to an observed NAUC >170% of positive control) | +++ (NAUC “+++” refers to an observed NAUC >170% of positive control)
O=C1C2C3CCCN3C3(C(=O)Nc4c(Cl)cccc43)C2C(=O)N1c1cc(Cl)cc(Cl)c1 (stereo not drawn) [Example 75] | ++ (NAUC “++” refers to an observed NAUC 170-140% of positive control) | + (NAUC “+” refers to an observed NAUC <140% of positive control)
COc1cc(Cl)cc(N2C(=O)C3C4C[C@H](Cl)CN4C4(C(=O)Nc5c(Cl)cc(Cl)cc54)C3C2=O)c1 (stereo partly drawn) [Example 76] | +++ (NAUC “+++” refers to an observed NAUC >170% of positive control) | +++ (NAUC “+++” refers to an observed NAUC >170% of positive control)
COc1c(Cl)cc(N2C(=O)C3C4CCCN4C4(C(=O)Nc5c(Cl)cc(Cl)cc54)C3C2=O)cc1Cl (stereo not drawn) [Example 77] | +++ (NAUC “+++” refers to an observed NAUC >170% of positive control) | +++ (NAUC “+++” refers to an observed NAUC >170% of positive control)
COc1c(Cl)cc(N2C(=O)C3C4C[C@H](F)CN4C4(C(=O)Nc5c(Cl)cc(Cl)cc54)C3C2=O)cc1Cl (stereo partly drawn) [Example 78] | +++ (NAUC “+++” refers to an observed NAUC >170% of positive control) | +++ (NAUC “+++” refers to an observed NAUC >170% of positive control)
COc1c(Cl)cc(N2C(=O)C3C4C[C@H](Cl)CN4C4(C(=O)Nc5c(Cl)cc(Cl)cc54)C3C2=O)cc1Cl (stereo partly drawn) [Example 79] | +++ (NAUC “+++” refers to an observed NAUC >170% of positive control) | +++ (NAUC “+++” refers to an observed NAUC >170% of positive control)
O=C1C2C3C[C@H](F)CN3C3(C(=O)Nc4c(Cl)cc(Cl)cc43)C2C(=O)N1c1cc(O)cc(Cl)c1 (stereo partly drawn) [Example 80] | ++ (NAUC “++” refers to an observed NAUC 170-140% of positive control) | ++ (NAUC “++” refers to an observed NAUC 170-140% of positive control)
O=C1C2C3C[C@H](Cl)CN3C3(C(=O)Nc4c(Cl)cc(Cl)cc43)C2C(=O)N1c1cc(O)cc(Cl)c1 (stereo partly drawn) [Example 81] | + (NAUC “+” refers to an observed NAUC <140% of positive control) | ++ (NAUC “++” refers to an observed NAUC 170-140% of positive control)
O=C1C2C3C[C@H](O)CN3C3(C(=O)Nc4c(Cl)cc(Cl)cc43)C2C(=O)N1c1cc(Cl)c(O)c(Cl)c1 (stereo partly drawn) [Example 82] | + (NAUC “+” refers to an observed NAUC <140% of positive control) | ++ (NAUC “++” refers to an observed NAUC 170-140% of positive control)
O=C1C2C3C[C@H](Cl)CN3C3(C(=O)Nc4c(Cl)cc(Cl)cc43)C2C(=O)N1c1cc(Cl)c(O)c(Cl)c1 (stereo partly drawn) [Example 83] | ++ (NAUC “++” refers to an observed NAUC 170-140% of positive control) | +++ (NAUC “+++” refers to an observed NAUC >170% of positive control)
O=C1C2C3CCCN3C3(C(=O)Nc4ccc(Cl)cc43)C2C(=O)N1c1cc(Cl)cc(Cl)c1 (stereo not drawn) [Example 85] | ++ (NAUC “++” refers to an observed NAUC 170-140% of positive control) | +++ (NAUC “+++” refers to an observed NAUC >170% of positive control)
O=C1C2C(Cl)(C(=O)N1c1cc(Cl)cc(Cl)c1)C1CCCN1C21C(=O)Nc2c(Cl)cc(Cl)cc21 (stereo not drawn) [Example 89] | + (NAUC “+” refers to an observed NAUC <140% of positive control) | ++ (NAUC “++” refers to an observed NAUC 170-140% of positive control)
CC(=O)Oc1c(Cl)cc(Cl)cc1N1C(=O)C2C3CCCN3C3(C(=O)Nc4c(Cl)cc(Cl)cc43)C2C1=O (stereo not drawn) [Example 90] | + (NAUC “+” refers to an observed NAUC <140% of positive control) | +++ (NAUC “+++” refers to an observed NAUC >170% of positive control)
CC(=O)Oc1c(Cl)cc(Cl)cc1N1C(=O)C2C3C[C@H](O)CN3C3(C(=O)Nc4c(Cl)cc(Cl)cc43)C2C1=O (stereo partly drawn) [Example 91] | + (NAUC “+” refers to an observed NAUC <140% of positive control) | +++ (NAUC “+++” refers to an observed NAUC >170% of positive control)
CC(=O)Oc1c(Cl)cc(Cl)cc1N1C(=O)C2C3C[C@H](F)CN3C3(C(=O)Nc4c(Cl)cc(Cl)cc43)C2C1=O (stereo partly drawn) [Example 92] | +++ (NAUC “+++” refers to an observed NAUC >170% of positive control) | + (NAUC “+” refers to an observed NAUC <140% of positive control)
CC(=O)Oc1c(Cl)cc(Cl)cc1N1C(=O)C2C3C[C@H](Cl)CN3C3(C(=O)Nc4c(Cl)cc(Cl)cc43)C2C1=O (stereo partly drawn) [Example 93] | ++ (NAUC “++” refers to an observed NAUC 170-140% of positive control) | +++ (NAUC “+++” refers to an observed NAUC >170% of positive control)
O=C1C2C3C4OC4CN3C3(C(=O)Nc4c(Cl)cc(Cl)cc43)C2C(=O)N1c1cc(Cl)cc(Cl)c1 (stereo not drawn) [Example 94] | ++ (NAUC “++” refers to an observed NAUC 170-140% of positive control) | +++ (NAUC “+++” refers to an observed NAUC >170% of positive control)
O=C1C2C3C[C@H](F)CN3C3(C(=O)Nc4c(Cl)cc(Cl)cc43)C2C(=O)N1c1cc(Cl)cc(Cl)c1O (stereo partly drawn) [Example 95] | ++ (NAUC “++” refers to an observed NAUC 170-140% of positive control) | + (NAUC “+” refers to an observed NAUC <140% of positive control)
O=C1C2C3C[C@H](Cl)CN3C3(C(=O)Nc4c(Cl)cc(Cl)cc43)C2C(=O)N1c1cc(Cl)cc(Cl)c1O (stereo partly drawn) [Example 96] | ++ (NAUC “++” refers to an observed NAUC 170-140% of positive control) | + (NAUC “+” refers to an observed NAUC <140% of positive control)
COc1cccc(N2C(=O)C3C4CCCN4C4(C(=O)Nc5c(Cl)cc(Cl)cc54)C3C2=O)c1 (stereo not drawn) [Example 97] | + (NAUC “+” refers to an observed NAUC <140% of positive control) | ++ (NAUC “++” refers to an observed NAUC 170-140% of positive control)
COc1ccc2c(c1)NC(=O)C21C2C(=O)N(c3cc(Cl)cc(Cl)c3)C(=O)C2C2CCCN21 (stereo not drawn) [Example 98] | +++ (NAUC “+++” refers to an observed NAUC >170% of positive control) | +++ (NAUC “+++” refers to an observed NAUC >170% of positive control)
O=C1C2C3CC(C(F)F)CN3C3(C(=O)Nc4c(Cl)cc(Cl)cc43)C2C(=O)N1c1cc(Cl)cc(Cl)c1 (stereo not drawn) [Example 99] | +++ (NAUC “+++” refers to an observed NAUC >170% of positive control) | +++ (NAUC “+++” refers to an observed NAUC >170% of positive control)
